Experimental data as given in BindingDB's records for doi:10.1038/305140a0 (College of France, 1983).
“And” between values parts separate entries of the source, which are not always exact repeats. Equal values may be shown once.

Each compound was assayed against T1, 5-hydroxytryptamine receptor 1A (Rattus norvegicus, UniProt P19327).
T1 sequence (P19327 whole entry): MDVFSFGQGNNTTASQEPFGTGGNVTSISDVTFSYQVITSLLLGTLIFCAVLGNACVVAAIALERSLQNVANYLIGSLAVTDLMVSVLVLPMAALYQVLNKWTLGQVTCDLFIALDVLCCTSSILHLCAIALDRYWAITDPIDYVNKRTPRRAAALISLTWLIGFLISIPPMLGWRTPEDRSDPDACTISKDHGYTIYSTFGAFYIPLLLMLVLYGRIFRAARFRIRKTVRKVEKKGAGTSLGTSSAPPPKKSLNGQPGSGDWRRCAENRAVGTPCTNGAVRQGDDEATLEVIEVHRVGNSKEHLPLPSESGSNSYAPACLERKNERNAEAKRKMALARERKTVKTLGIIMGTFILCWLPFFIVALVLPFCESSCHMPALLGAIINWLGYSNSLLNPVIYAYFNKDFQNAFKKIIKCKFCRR

SMILES	Ki
CN1C2CCC1CC(OC(c1ccccc1)c1ccccc1)C2 (stereo not given)	> 10 µM
CN(C)CCCSc1ccccc1NC(=O)/C=C/c1ccccc1 [CINANSERIN]	1.1 µM and > 10 µM
CC(CN1c2ccccc2Sc2ccccc21)N(C)C (stereo not drawn) [N,N,alpha-trimethyl-10H-phenothiazine-10-ethanamine]	> 10 µM
CN1CCC(=C2c3ccccc3CCc3sccc32)CC1 [NSC_27400]	2.19 µM and 6.17 µM
CN(C)CCCN1c2ccccc2CCc2ccccc21	> 10 µM
O=C(c1ccc(F)cc1)C1CCN(CCn2c(=O)[nH]c3ccccc3c2=O)CC1 [3-(2-{4-[(4-fluorophenyl)carbonyl]piperidin-1-yl}ethyl)-1,2,3,4-tetrahydroquinazoline-2,4-dione]	4.17 µM and > 10 µM
CN1C[C@H](CNC(=O)OCc2ccccc2)C[C@@H]2c3cccc4c3c(cn4C)C[C@H]21 [METERGOLINE]	0.0347 µM and 0.245 µM
NCCc1ccc(O)c(O)c1	> 10 µM
COc1ccc2[nH]cc(CCN(C)C)c2c1 [3-(2-DIMETHYLAMINOETHYL)-5-METHOXYINDOLE]	0.0398 µM and 0.288 µM
NCCc1c[nH]c2ccccc12 [1H-indole-3-ethanamine]	3.72 µM and > 10 µM
